Reference: article PMC4804716 (The FEBS journal, 2015)

How the values were obtained:
[1] = biological target: T1, Schistosoma mansoni thioredoxin glutathione reductase (SmTGR) (Schistosoma mansoni, UniProt Q962Y6); experiment: Time-dependent inactivation of SmTGR; conditions: high inhibitor concentrations, 5 min incubation without NADPH
T1 sequence (Q962Y6 1-598): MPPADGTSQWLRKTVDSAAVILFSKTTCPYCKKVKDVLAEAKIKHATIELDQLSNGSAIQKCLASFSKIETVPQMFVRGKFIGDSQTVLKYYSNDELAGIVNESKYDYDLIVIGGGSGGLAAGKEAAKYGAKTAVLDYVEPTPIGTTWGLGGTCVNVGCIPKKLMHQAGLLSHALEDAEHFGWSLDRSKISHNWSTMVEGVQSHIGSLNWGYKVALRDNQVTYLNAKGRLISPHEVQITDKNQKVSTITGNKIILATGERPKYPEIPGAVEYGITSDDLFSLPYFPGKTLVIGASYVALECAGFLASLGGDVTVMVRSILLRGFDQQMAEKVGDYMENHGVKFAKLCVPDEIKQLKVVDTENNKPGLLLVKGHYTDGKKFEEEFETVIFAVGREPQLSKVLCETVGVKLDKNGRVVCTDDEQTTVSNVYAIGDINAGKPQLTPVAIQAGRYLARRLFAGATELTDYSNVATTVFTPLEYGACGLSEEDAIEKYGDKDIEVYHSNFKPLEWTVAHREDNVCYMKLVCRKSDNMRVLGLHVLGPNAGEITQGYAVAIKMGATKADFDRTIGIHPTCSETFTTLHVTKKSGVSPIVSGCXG

[2] = pKa estimation by absorption spectrophotometry; type: physicochemical
[3] = Cyclic voltammetry of menadione derivatives; type: physicochemical; conditions: DMSO
S. mansoni worms = experiment: Antischistosomal activity against adult, ex vivo worms; type: cell-based, Schistosoma mansoni
[4] = Cytotoxicity against human MRC-5 cells; type: cell-based; conditions: human lung MRC-5 fibroblasts (MRC-5SV2 cells)
[5] = Glutathionylation reaction kinetics; type: physicochemical; conditions: pH 7.5
[6] = biological target: T1, Schistosoma mansoni thioredoxin glutathione reductase (SmTGR); experiment: SmTGR DTNB assay; type: biochemical

COc1ccc(OCC2=C(C(F)F)C(=O)c3ccccc3C2=O)cc1C(F)(F)F [Compound 9, 2-(difluoromethyl)-3-((4-methoxy-3-(trifluoromethyl)phenoxy)methyl)naphthalene-1,4-dione]
SmTGR inactivation in the absence of NADPH [1]: resulted in inactivation
pKa [2]: ~7.1
Epa1 ([3]; 0.1 M n-Bu4NPF6, v = 200 mV s^−1, reference KCl(3 M)/Ag/AgCl, first wave): −0.215 V
Ipc1/Ipa1 ([3]; 0.1 M n-Bu4NPF6, v = 200 mV s^−1, first wave): 1.67
E^1½ ([3]; E½ = (Epc+Epa)/2, 0.1 M n-Bu4NPF6, reference KCl(3 M)/Ag/AgCl, first wave): −0.271 V
ΔEp (first wave) ([3]; ΔE = Epa-Epc, 0.1 M n-Bu4NPF6, v = 200 mV s^−1): 111 mV
antischistosomal activity against cultured ex vivo worms (S. mansoni worms; 50 μM compound alone): inactive
killing of worms whether RBCs were present or not (S. mansoni worms; 50 μM, with or without human red blood cells (10 μl/well)): no effect on killing the worms
IC50 at 3 days [4]: 11.2 µM
decrease of the k2 values compared to the difluoromenadione itself [5]: ~10 fold
IC50 [6]: 0.046 µM
